# Assay results from ChEMBL document CHEMBL1201862, “PubChem BioAssay data set” (2004).
#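 How tested: cells in 96-well plates exposed to compound for 48 hours at five concentrations. GI50 marks 50% less growth.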 Active and inactive are the calls of the source. Rule as the data show it: active = GI50 up to about 1.1 µM and inactive = higher.
# Key:
# Test in all cases: NCI anticancer screen, dose series, 48 h
# CCRF-CEM = system: CCRF-CEM
# UO-31 = system: UO-31
# HOP-92 = system: HOP-92
# T47D = system: T47D
# K562 = system: K562
# MDA-N = system: MDA-N
# MOLT-4 = system: MOLT-4
# A498 = system: A498
# MDA-MB-435 = system: MDA-MB-435
# OVCAR-8 = system: OVCAR-8
# SNB-19 = system: SNB-19
# RXF 393 = system: RXF 393
# NCI/ADR-RES = system: NCI/ADR-RES
# OVCAR-5 = system: OVCAR-5
# ACHN = system: ACHN
# EKVX = system: EKVX
# PC-3 = system: PC-3
# RPMI-8226 = system: RPMI-8226
# HCC 2998 = system: HCC 2998
SMILES,GI50 (CCRF-CEM),GI50 (UO-31),GI50 (HOP-92),GI50 (T47D),GI50 (K562),GI50 (MDA-N),GI50 (MOLT-4),GI50 (A498),GI50 (MDA-MB-435),GI50 (OVCAR-8),GI50 (SNB-19),GI50 (RXF 393),GI50 (NCI/ADR-RES),GI50 (OVCAR-5),GI50 (ACHN),GI50 (EKVX),GI50 (PC-3),GI50 (RPMI-8226),GI50 (HCC 2998)
NC12CC3CC4C1CC1CC2C(C3)C4(N)C1,> 100 µM (inactive),> 100 µM (inactive),> 100 µM (inactive),> 100 µM (inactive),> 100 µM (inactive),> 100 µM (inactive),> 100 µM (inactive),> 100 µM (inactive),> 100 µM (inactive),> 100 µM (inactive),> 100 µM (inactive),> 100 µM (inactive),> 100 µM (inactive),> 100 µM (inactive),> 100 µM (inactive),> 100 µM (inactive),> 100 µM (inactive),,
COc1ccc(NC=O)c(C(O)CCNC(C)=O)c1 (configuration not stated),> 100 µM (inactive),> 100 µM (inactive),> 100 µM (inactive),> 100 µM (inactive),> 100 µM (inactive),> 100 µM (inactive),> 100 µM (inactive),> 100 µM (inactive),> 100 µM (inactive),> 100 µM (inactive),> 100 µM (inactive),> 100 µM (inactive),> 100 µM (inactive),> 100 µM (inactive),> 100 µM (inactive),> 100 µM (inactive),> 100 µM (inactive),> 100 µM (inactive),
CCCN(CCC)CCc1ccc(OC2=CCN(C)CC2)cc1,93.5 µM (inactive),23.6 µM (inactive),,> 100 µM (inactive),42.6 µM (inactive),36.6 µM (inactive),43.3 µM (inactive),,33 µM (inactive),36.9 µM (inactive),> 100 µM (inactive),> 100 µM (inactive),> 100 µM (inactive),> 100 µM (inactive),95.5 µM (inactive),> 100 µM (inactive),> 100 µM (inactive),> 100 µM (inactive),> 100 µM (inactive)
O=S(=O)(O)c1cc(S(=O)(=O)O)c2cc(/N=N/c3c(O)ccc4ccccc34)ccc2c1,> 100 µM (inactive),> 100 µM (inactive),> 100 µM (inactive),> 100 µM (inactive),> 100 µM (inactive),> 100 µM (inactive),> 100 µM (inactive),,> 100 µM (inactive),> 100 µM (inactive),> 100 µM (inactive),> 100 µM (inactive),> 100 µM (inactive),> 100 µM (inactive),> 100 µM (inactive),> 100 µM (inactive),> 100 µM (inactive),> 100 µM (inactive),
CSCCCNC(=O)c1csc(-c2csc(C(CNC(=O)OC(C)(C)C)CNC(=O)OC(C)(C)C)n2)n1,16.6 µM (inactive),31.8 µM (inactive),43 µM (inactive),29.2 µM (inactive),33.6 µM (inactive),51.4 µM (inactive),16.8 µM (inactive),55.2 µM (inactive),45 µM (inactive),33.9 µM (inactive),58.3 µM (inactive),68.5 µM (inactive),24.8 µM (inactive),67 µM (inactive),30.9 µM (inactive),58.3 µM (inactive),28.4 µM (inactive),14.3 µM (inactive),
COc1ccc(/C=C/C(=O)C(C)(C)Br)cc1,1.59 µM (inactive),4.27 µM (inactive),11.8 µM (inactive),20.8 µM (inactive),4.61 µM (inactive),7.57 µM (inactive),3.86 µM (inactive),20 µM (inactive),11.5 µM (inactive),3.04 µM (inactive),25.8 µM (inactive),1.4 µM (inactive),24 µM (inactive),12 µM (inactive),8.55 µM (inactive),15.1 µM (inactive),11.7 µM (inactive),3.42 µM (inactive),
Cc1ccc2c(=O)cc(Cc3csc4ccccc34)[nH]c2n1,41.4 µM (inactive),22.4 µM (inactive),,19 µM (inactive),43.5 µM (inactive),64.7 µM (inactive),38.3 µM (inactive),32.3 µM (inactive),32.6 µM (inactive),36 µM (inactive),39.7 µM (inactive),25.3 µM (inactive),19.8 µM (inactive),60 µM (inactive),,29.2 µM (inactive),67 µM (inactive),22.3 µM (inactive),
Cc1cc2[nH]c3c(C#N)c(-c4ccccc4)c(/C=N/c4ccc(Cl)cc4)c(=O)n3c2cc1C,> 100 µM (inactive),> 100 µM (inactive),,> 100 µM (inactive),,> 100 µM (inactive),,> 100 µM (inactive),> 100 µM (inactive),> 100 µM (inactive),> 100 µM (inactive),> 100 µM (inactive),> 100 µM (inactive),> 100 µM (inactive),> 100 µM (inactive),> 100 µM (inactive),> 100 µM (inactive),> 100 µM (inactive),> 100 µM (inactive)
COc1ccc(-n2c(CCCC(=O)O)nc3c2C(=O)c2ccccc2C3=O)cc1,36.3 µM (inactive),> 100 µM (inactive),20.2 µM (inactive),88.3 µM (inactive),47.3 µM (inactive),31.4 µM (inactive),68.1 µM (inactive),> 100 µM (inactive),26.4 µM (inactive),51.3 µM (inactive),> 100 µM (inactive),,> 100 µM (inactive),> 100 µM (inactive),71.3 µM (inactive),60.7 µM (inactive),,36.3 µM (inactive),84.7 µM (inactive)
O=[N+]([O-])c1ccc2c(c1)c(S(=O)(=O)O)cc1nonc12,,> 100 µM (inactive),> 100 µM (inactive),> 100 µM (inactive),> 100 µM (inactive),> 100 µM (inactive),> 100 µM (inactive),> 100 µM (inactive),> 100 µM (inactive),> 100 µM (inactive),> 100 µM (inactive),,> 100 µM (inactive),> 100 µM (inactive),> 100 µM (inactive),> 100 µM (inactive),> 100 µM (inactive),> 100 µM (inactive),
O=C(Cc1ccccc1)NN1C(=O)/C(=C\c2cccc(O)c2)S/C1=N\c1ccccc1,,55.8 µM (inactive),,57.3 µM (inactive),,> 100 µM (inactive),,> 100 µM (inactive),> 100 µM (inactive),> 100 µM (inactive),> 100 µM (inactive),> 100 µM (inactive),> 100 µM (inactive),> 100 µM (inactive),> 100 µM (inactive),> 100 µM (inactive),,,> 100 µM (inactive)
CCC(=O)N(c1ccccc1)C(C)CN1CCC(O)(c2ccccc2)CC1 (configuration not stated),> 100 µM (inactive),> 100 µM (inactive),> 100 µM (inactive),> 100 µM (inactive),74.1 µM (inactive),> 100 µM (inactive),> 100 µM (inactive),> 100 µM (inactive),> 100 µM (inactive),> 100 µM (inactive),> 100 µM (inactive),> 100 µM (inactive),> 100 µM (inactive),> 100 µM (inactive),> 100 µM (inactive),> 100 µM (inactive),> 100 µM (inactive),> 100 µM (inactive),
COC1CN(C)/C(=N\c2cccc3ccccc23)S1 (configuration not stated),> 10 µM (inactive),,> 10 µM (inactive),> 10 µM (inactive),> 10 µM (inactive),> 10 µM (inactive),> 10 µM (inactive),,> 10 µM (inactive),> 10 µM (inactive),> 10 µM (inactive),,> 10 µM (inactive),> 10 µM (inactive),> 10 µM (inactive),,> 10 µM (inactive),> 10 µM (inactive),> 10 µM (inactive)
COc1cc2c(cc1OC)C(c1ccccc1CCCCl)=NCC2,> 100 µM (inactive),85.9 µM (inactive),39.1 µM (inactive),42.8 µM (inactive),35.8 µM (inactive),,80.4 µM (inactive),> 100 µM (inactive),10.8 µM (inactive),97.5 µM (inactive),> 100 µM (inactive),> 100 µM (inactive),> 100 µM (inactive),> 100 µM (inactive),> 100 µM (inactive),90.2 µM (inactive),49.9 µM (inactive),14.3 µM (inactive),46.9 µM (inactive)
Cc1cn(C(CO)OC(CO)CN(O)C2C3CC4CC(C3)CC2C4)c(=O)[nH]c1=O (configuration not stated),,> 100 µM (inactive),> 100 µM (inactive),> 100 µM (inactive),> 100 µM (inactive),> 100 µM (inactive),> 100 µM (inactive),> 100 µM (inactive),> 100 µM (inactive),> 100 µM (inactive),> 100 µM (inactive),,,> 100 µM (inactive),> 100 µM (inactive),> 100 µM (inactive),> 100 µM (inactive),> 100 µM (inactive),> 100 µM (inactive)
[O-][S+]1c2ccccc2SCSc2ccccc21,,> 100 µM (inactive),14.8 µM (inactive),97.7 µM (inactive),16.7 µM (inactive),> 100 µM (inactive),66.5 µM (inactive),> 100 µM (inactive),,> 100 µM (inactive),> 100 µM (inactive),> 100 µM (inactive),> 100 µM (inactive),> 100 µM (inactive),> 100 µM (inactive),,> 100 µM (inactive),18.2 µM (inactive),> 100 µM (inactive)
CCCCCCCCCCCCCCCC1(OC)C[N+](C)(C)CCO1 (configuration not stated),0.637 µM (active),,,5.73 µM (inactive),1.85 µM (inactive),2.05 µM (inactive),1.12 µM (inactive),19.1 µM (inactive),1.96 µM (inactive),1.83 µM (inactive),1.6 µM (inactive),0.778 µM (active),17.9 µM (inactive),2.23 µM (inactive),1.85 µM (inactive),2.31 µM (inactive),2.4 µM (inactive),,2.54 µM (inactive)
